Each structure is given as a SMILES string.

Experiment [1] deals with MCF7 cells. Nature of the experiment: Annexin V and propidium iodide apoptosis assay (FACS). Format: cell-based, human. To be noted: about 24 hours, dose dependent manner. On the procedure: Phosphatidylserine exposure and cell death are assessed by FACS analysis using Annexin-V-FLUOS Staining Kit (Life Technologies, Singapore) and PI-stained cells. Briefly, 1×10^5 MCF cells/well (190 μL/well) are seeded in 6-well plates and incubated with different concentrations of NPB for about 24 hours and DMSO treated samples are used as control. Cells are then washed with Annexin V binding buffer (10 mM HEPES/NaOH, pH7.4, 140 mM NaCl, 2.5 mM CaCl2), stained with Annexin V FITC for about 30 minutes at room temperature in the dark, then washed again and re-suspended in Annexin V binding buffer containing PI. Samples are analyzed immediately on a BD FACSAria Cell Sorter (BD Biosciences, San Jose, Calif.).
Loss of membrane integrity and translocation of phosphatidylserine to outer leaflet of plasma membrane are the early events of apoptosis which can be detected using FITC conjugated annexin-V and propidium iodide staining. It is observed that NPB induces apoptosis in MCF7 cells using FITC-annexin V and propidium iodide. On treatment with NPB, increase in both early (PI negative, FITC-Annexin V positive) and late apoptotic cells (PI positive, FITC-Annexin V positive) is observed in a dose dependent manner as shown in FIG. 13A.

The test system of experiment [2] is MCF7 cells. The experiment in a line: AlamarBlue cell viability assay. Format: cell-based. To be noted: Homo sapiens, read-out: IC50 (antiproliferative). From the text: We initially investigated the effect of newly synthesized small molecule compounds against MCF7 cells (ER+ MC cells) using an AlamarBlue® cell viability assay. Among the series of novel small molecule compounds, NPB was identified as an efficacious small molecule compound reducing viability of MCF7 cells compared to vehicle (DMSO) treated cells. […] We next determined the inhibitory concentration 50% (IC50) of NPB in wide-range of carcinoma cell lines including those derived from ER− mammary (BT549, MDA-MB-231), ER+ mammary (MCF7, T47D, and BT474), endometrial (Ishikawa, ECC-1, RL95-2, and AN3), ovarian (SK-OV-3, OVCAR-2, Caov-3, HEY C2, and OVCA433), hepatocellular (Hep3B, H2P, and H2M), colon (HCT116, DLD-1, and Caco-2), prostate (PC3, LNCaP, and DU145) and pancreatic (AsPC-1, BxPC-3) carcinoma. As normal cell controls, we also included immortalized mammary epithelial cells (MCF10A and MCF12A), and immortalized hepatocytes (LO2) in the panel of cell lines.
For orientation: Alamar Blue is a resazurin reagent that responds to reducing activity.

Experiment [3] addresses T1, hBAD Ser99 phosphorylation (Homo sapiens, UniProt Q92934).
T1 construct: endogenous in cells; host or cells: MCF7 (A6); 25 carcinoma cell lines of seven cancer types (A7)
T1 sequence (Q92934 1-168): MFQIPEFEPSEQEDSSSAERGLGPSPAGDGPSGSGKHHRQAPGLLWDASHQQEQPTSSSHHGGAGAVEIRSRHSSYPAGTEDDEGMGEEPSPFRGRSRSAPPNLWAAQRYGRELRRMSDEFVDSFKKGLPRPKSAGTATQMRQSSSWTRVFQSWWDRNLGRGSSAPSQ
Nature of the experiment: Western blot of BAD Ser99 phosphorylation in MCF7 cells. Format: cell-based. On the procedure:
(A) Sensorgrams obtained by SPR analysis of NPB with the BAD protein subunit. The BAD protein subunit was immobilized onto the surface of a CM5 sensor chip. A solution of NPB at variable concentrations (20-100 μM) was injected to generate result binding responses (RU) recorded as a function of time (sec). The results were analyzed using BIA evaluation 3.1. (B) Western blot (WB) analysis was used to assess the level of Ser99 phosphorylation of BAD in MCF7 cells after treatment with NPB. (Below) Calculated IC50 of NPB from dose-response for BAD phosphorylation (Ser99), BAD and β-ACTIN as in shown above by use of ImageJ software from NIH, USA (http://imagej.nih.gov/ij/). (C) WB analysis was used to assess the level of a multiple proteins involved upstream of BAD in MCF7 cells after treatment with NPB. (D) WB analysis was used to assess the level of a multiple protein involved cell survival and cell proliferation in MCF7 cells after treatment with NPB. For WB analysis, soluble whole cell extracts were run on an SDS-PAGE and immunoblotted as described in methodology. β-ACTIN (ACTB) was used as an input control for cell lysate. The sizes of detected protein bands in kDa are shown on the left side.
Phosphorylation of hBAD at residues Ser-75 (mouse BAD serine residue 112) and Ser-99 (mouse BAD serine residue 136) are crucial in regulating the activity of the BCL-2 family of anti-apoptotic proteins. hBAD phosphorylation either at Ser-75 or Ser99 (or the corresponding residues in mouse bad) results in loss of the ability of hBAD to heterodimerize with BCL-xL or BCL-2 [15]. To further validate the predicted target, we first analyzed the effect of NPB on phosphorylation of hBAD at Ser99 by western blot analysis.
(In general: Immunoblotting shows a protein as a band on a membrane.)

`O=C(NC1CCCC1)c1cccc(C(c2ccccc2O)N2CCN(c3cccc(Cl)c3Cl)CC2)c1` (centres unmarked) [NPB, N-cyclopentyl-3-((4-(2,3-dichlorophenyl)piperazin-1-yl)(2-hydroxyphenyl)methyl) benzamide]: in the experiment with MCF7 cells [1], the “early and late apoptotic cells (FITC-Annexin V / PI)” value is “increase”. Further, in the experiment on MCF7 cells [2], the IC50 is 6.5 µM. For the same compound, in experiment [3], the “phosphorylation of hBAD Ser99” value is “dose dependent decrease” and the “total hBAD protein” value is given as “without a significant change”. In addition, in experiment [3] (ImageJ, read-out: EC50 for inhibition of BAD Ser99 phosphorylation), the EC50 was determined as 0.41 ± 0.21 µM.

What is called IC50 is the point on the concentration scale where inhibition reaches its midpoint. For orientation: EC50 means the concentration needed to bring the measured effect to its halfway point.

Source of the values: patent US11292773B2, “Small molecule inhibitors of BCL-2-associated death promoter (BAD) phosphorylation” (NATIONAL UNIVERSITY OF SINGAPORE, priority 2017, dated 2022).
